In publication PMC5218480 (PLoS ONE, 2017):

Tested on: MV-4-11 cells
Assay: Gene expression microarray analysis (Affymetrix PrimeView) and GSEA
Assay type: cell-based, human
Design: RFU PODN (11730768_x_at) / Fold change /veh PODN (11730768_x_at) / RFU LINC00158 (11744669_a_at) / Fold change /veh LINC00158 (11744669_a_at) / RFU DUSP10 (11751237_a_at) / Fold change /veh DUSP10 (11751237_a_at) / RFU ID3 (11757404_x_at) / Fold change /veh ID3 (11757404_x_at) / RFU PLEKHG5 (11737974_s_at) / Fold change /veh PLEKHG5 (11737974_s_at) / RFU LRRC4B (11730491_at) / Fold change /veh LRRC4B (11730491_at) / RFU GIMAP4 (11747438_a_at) / Fold change /veh GIMAP4 (11747438_a_at) / RFU KRT8 (11758183_x_at) / Fold change /veh KRT8 (11758183_x_at) / RFU CNN1 (11734310_a_at) / Fold change /veh CNN1 (11734310_a_at) / RFU VPS37D (11726825_at) / Fold change /veh VPS37D (11726825_at) / RFU C10orf10 (11716522_x_at) / Fold change /veh C10orf10 (11716522_x_at) / RFU KIR2DL2 /// KIR2DL4 /// KIR2DL5A /// KIR2DL5B /// KIR2DS1 /// KIR2DS2 /// KIR2DS3 /// KIR2DS4 /// KIR3DL3 /// KIR3DL3 /// KIR3DS1 (11738374_at) / Fold change /veh KIR2DL2 /// KIR2DL4 /// KIR2DL5A /// KIR2DL5B /// KIR2DS1 /// KIR2DS2 /// KIR2DS3 /// KIR2DS4 /// KIR3DL3 /// KIR3DL3 /// KIR3DS1 (11738374_at) / RFU C1QL1 (11718748_at) / Fold change /veh C1QL1 (11718748_at) / RFU TMPRSS4 (11747572_a_at) / Fold change /veh TMPRSS4 (11747572_a_at) / RFU HAMP (11756126_x_at) / Fold change /veh HAMP (11756126_x_at) / RFU RNFT2 (11725882_a_at) / Fold change /veh RNFT2 (11725882_a_at) / RFU NR4A2 (11747474_a_at) / Fold change /veh NR4A2 (11747474_a_at) / RFU ABCC12 (11746883_a_at) / Fold change /veh ABCC12 (11746883_a_at) / RFU TMEM136 (11760407_x_at) / Fold change /veh TMEM136 (11760407_x_at) / RFU CLDN22 /// WWC2 (11732394_at) / Fold change /veh CLDN22 /// WWC2 (11732394_at) / RFU HLA-DPB1 (11760878_x_at) / Fold change /veh HLA-DPB1 (11760878_x_at) / RFU SPINT1 (11716480_a_at) / Fold change /veh SPINT1 (11716480_a_at) / RFU GAP43 (11754022_s_at) / Fold change /veh GAP43 (11754022_s_at) / RFU A4GNT (11735810_at) / Fold change /veh A4GNT (11735810_at) / RFU PRB3 (11715151_x_at) / Fold change /veh PRB3 (11715151_x_at) / RFU TUBB4B (11761932_at) / Fold change /veh TUBB4B (11761932_at) / RFU CAPN14 (11732068_a_at) / Fold change /veh CAPN14 (11732068_a_at) / RFU TMCC2 (11721928_a_at) / Fold change /veh TMCC2 (11721928_a_at) / RFU IRGQ (11745062_a_at) / Fold change /veh IRGQ (11745062_a_at) / RFU FAM174B (11720279_a_at) / Fold change /veh FAM174B (11720279_a_at) / RFU TMPRSS4 (11748680_a_at) / Fold change /veh TMPRSS4 (11748680_a_at) / RFU FAM212B (11763350_a_at) / Fold change /veh FAM212B (11763350_a_at) / RFU PLEKHG5 (11743358_a_at) / Fold change /veh PLEKHG5 (11743358_a_at) / RFU ZSCAN30 (11745921_a_at) / Fold change /veh ZSCAN30 (11745921_a_at) / RFU CMKLR1 (11741424_a_at) / Fold change /veh CMKLR1 (11741424_a_at) / RFU LOC101060620 /// MAPK8IP1 (11723275_at) / Fold change /veh LOC101060620 /// MAPK8IP1 (11723275_at) / RFU SPTSSB (11747773_x_at) / Fold change /veh SPTSSB (11747773_x_at) / RFU PRSS12 (11739890_at) / Fold change /veh PRSS12 (11739890_at) / RFU BIN1 (11741810_x_at) / Fold change /veh BIN1 (11741810_x_at) / RFU WNT11 (11732464_a_at) / Fold change /veh WNT11 (11732464_a_at) / RFU C10orf10 (11716521_a_at) / Fold change /veh C10orf10 (11716521_a_at) / RFU C5orf56 (11738089_at) / Fold change /veh C5orf56 (11738089_at) / RFU CYB561 (11721691_x_at) / Fold change /veh CYB561 (11721691_x_at) / RFU ANKRD19P (11752326_a_at) / Fold change /veh ANKRD19P (11752326_a_at) / RFU OR2T12 /// OR2T33 /// OR2T8 (11738714_s_at) / Fold change /veh OR2T12 /// OR2T33 /// OR2T8 (11738714_s_at) / RFU VCAN (11748164_a_at) / Fold change /veh VCAN (11748164_a_at) / RFU JSRP1 (11732532_at) / Fold change /veh JSRP1 (11732532_at) / RFU KRTAP10-11 (11738290_x_at) / Fold change /veh KRTAP10-11 (11738290_x_at) / RFU MYO3A (11730013_a_at) / Fold change /veh MYO3A (11730013_a_at) / RFU EBF3 (11725865_a_at) / Fold change /veh EBF3 (11725865_a_at) / RFU CAMK2N1 (11719241_x_at) / Fold change /veh CAMK2N1 (11719241_x_at) / RFU C5orf56 (11738088_a_at) / Fold change /veh C5orf56 (11738088_a_at) / RFU OLFML3 (11715873_a_at) / Fold change /veh OLFML3 (11715873_a_at) / RFU LOC100653217 /// NTM (11731650_a_at) / Fold change /veh LOC100653217 /// NTM (11731650_a_at) / RFU MAPK11 (11762145_a_at) / Fold change /veh MAPK11 (11762145_a_at) / RFU FIZ1 (11724087_x_at) / Fold change /veh FIZ1 (11724087_x_at) / RFU OASL (11726364_x_at) / Fold change /veh OASL (11726364_x_at) / RFU SOX15 (11748057_x_at) / Fold change /veh SOX15 (11748057_x_at) / RFU CD79A (11719716_a_at) / Fold change /veh CD79A (11719716_a_at) / RFU HIST1H1D (11736915_at) / Fold change /veh HIST1H1D (11736915_at) / RFU CASKIN2 (11723855_a_at) / Fold change /veh CASKIN2 (11723855_a_at) / RFU LOC730098 (11760151_x_at) / Fold change /veh LOC730098 (11760151_x_at) / RFU OR4N2 (11742367_at) / Fold change /veh OR4N2 (11742367_at) / RFU PRRT2 (11749266_a_at) / Fold change /veh PRRT2 (11749266_a_at) / RFU SNX32 (11753110_a_at) / Fold change /veh SNX32 (11753110_a_at) / RFU CDHR5 (11726645_a_at) / Fold change /veh CDHR5 (11726645_a_at) / RFU RCAN1 (11760418_a_at) / Fold change /veh RCAN1 (11760418_a_at) / RFU FAM167A (11723789_a_at) / Fold change /veh FAM167A (11723789_a_at) / RFU FAM26E (11764081_at) / Fold change /veh FAM26E (11764081_at) / RFU ISYNA1 (11749810_s_at) / Fold change /veh ISYNA1 (11749810_s_at) / RFU ACY1 (11761880_at) / Fold change /veh ACY1 (11761880_at) / RFU 11764098_at / Fold change /veh 11764098_at / RFU SAMD14 (11745864_x_at) / Fold change /veh SAMD14 (11745864_x_at) / RFU NPB (11741838_a_at) / Fold change /veh NPB (11741838_a_at) / RFU TMPRSS6 (11731388_a_at) / Fold change /veh TMPRSS6 (11731388_a_at) / RFU KRTAP10-2 (11738614_at) / Fold change /veh KRTAP10-2 (11738614_at) / RFU ARHGAP8 /// PRR5-ARHGAP8 (11727945_x_at) / Fold change /veh ARHGAP8 /// PRR5-ARHGAP8 (11727945_x_at) / RFU KRTAP5-7 /// NADSYN1 (11734609_at) / Fold change /veh KRTAP5-7 /// NADSYN1 (11734609_at) / RFU RASL12 (11751679_a_at) / Fold change /veh RASL12 (11751679_a_at) / RFU CDKN2B (11736163_a_at) / Fold change /veh CDKN2B (11736163_a_at) / RFU PRF1 (11729649_at) / Fold change /veh PRF1 (11729649_at) / RFU, ZNF638 /// ZNF638-IT1 / Fold change vs veh, ZNF638 /// ZNF638-IT1 / RFU, PANK3 / Fold change vs veh, PANK3 / RFU, SH3YL1 / Fold change vs veh, SH3YL1 / RFU, ZEB2 / Fold change vs veh, ZEB2 / RFU, NRIP1 / Fold change vs veh, NRIP1 / RFU, PTTG1IP / Fold change vs veh, PTTG1IP / RFU, CAPN2 / Fold change vs veh, CAPN2 / RFU, MED14 / Fold change vs veh, MED14 / RFU, SNORA58 / Fold change vs veh, SNORA58 / RFU, C1orf63 / Fold change vs veh, C1orf63 / RFU, LRRFIP1 / Fold change vs veh, LRRFIP1 / RFU, NDUFAF7 / Fold change vs veh, NDUFAF7 / RFU, SLC12A2 / Fold change vs veh, SLC12A2 / RFU, IBTK / Fold change vs veh, IBTK / RFU, ESF1 / Fold change vs veh, ESF1 / Fold change vs veh, TMEM50B / RFU, TAOK1 / Fold change vs veh, TAOK1 / RFU, ACBD3 / Fold change vs veh, ACBD3 / RFU, TMA16 / Fold change vs veh, TMA16 / RFU, RWDD3 / Fold change vs veh, RWDD3 / RFU, BCAT1 / Fold change vs veh, BCAT1 / RFU, EDEM3 / Fold change vs veh, EDEM3 / RFU, TMEM33 / Fold change vs veh, TMEM33 / RFU, WDR75 / Fold change vs veh, WDR75 / RFU, AHCTF1 / Fold change vs veh, AHCTF1 / RFU, TFRC / Fold change vs veh, TFRC / RFU, ZDHHC17 / Fold change vs veh, ZDHHC17 / RFU, NOM1 / Fold change vs veh, NOM1 / RFU, ARL8B / Fold change vs veh, ARL8B / RFU, ZBTB11 / Fold change vs veh, ZBTB11 / RFU, TAMM41 / Fold change vs veh, TAMM41 / RFU, KIAA1704 /// LOC100996395 / Fold change vs veh, KIAA1704 /// LOC100996395 / RFU, ING1 / Fold change vs veh, ING1 / RFU, TRMT61B / Fold change vs veh, TRMT61B / RFU, FUBP3 / Fold change vs veh, FUBP3 / RFU, TP53 / Fold change vs veh, TP53 / RFU, TNKS2 / Fold change vs veh, TNKS2 / RFU, ZFP14 / Fold change vs veh, ZFP14 / RFU, ACTR2 / Fold change vs veh, ACTR2 / RFU, PPP3R1 / Fold change vs veh, PPP3R1 / RFU, PIK3R1 / Fold change vs veh, PIK3R1 / RFU, HNRNPA1 / Fold change vs veh, HNRNPA1 / RFU, RNF170 / Fold change vs veh, RNF170 / RFU, ZNF28 / Fold change vs veh, ZNF28 / RFU, RNGTT / Fold change vs veh, RNGTT / RFU, OGT / Fold change vs veh, OGT / RFU, BRD1 / Fold change vs veh, BRD1 / RFU, MARS / Fold change vs veh, MARS / RFU, ZNF655 / Fold change vs veh, ZNF655 / RFU, FAHD1 / Fold change vs veh, FAHD1 / RFU, BDP1 / Fold change vs veh, BDP1 / RFU, LRRCC1 / Fold change vs veh, LRRCC1 / RFU, ARID1A / Fold change vs veh, ARID1A / RFU, ZNF146 / Fold change vs veh, ZNF146 / RFU, ZNF330 / Fold change vs veh, ZNF330 / RFU, GPN3 / Fold change vs veh, GPN3 / RFU, C9orf123 / Fold change vs veh, C9orf123 / RFU, N4BP2L2 / Fold change vs veh, N4BP2L2 / RFU, ARFIP1 / Fold change vs veh, ARFIP1 / RFU, FAM179B / Fold change vs veh, FAM179B / RFU, BCL10 / Fold change vs veh, BCL10 / RFU, UHRF1BP1L / Fold change vs veh, UHRF1BP1L / RFU, BET1 / Fold change vs veh, BET1 / RFU, CNOT2 / Fold change vs veh, CNOT2 / RFU, ZNF268 / Fold change vs veh, ZNF268 / Fold change vs veh, ZNF507 / RFU, DGCR2 / Fold change vs veh, DGCR2 / RFU, WDSUB1 / Fold change vs veh, WDSUB1 / Fold change vs veh, HSP90B1 /// MIR3652 / RFU, ADSS / Fold change vs veh, ADSS / RFU, GK / Fold change vs veh, GK / RFU, ZNF148 / Fold change vs veh, ZNF148 / RFU, TAF9 / Fold change vs veh, TAF9 / RFU, SLC1A5 / Fold change vs veh, SLC1A5 / RFU, SLMO2 / Fold change vs veh, SLMO2 / RFU, ABCC4 / Fold change vs veh, ABCC4 / RFU, LOC101060439 /// RAP1B / Fold change vs veh, LOC101060439 /// RAP1B / RFU, RFX7 / Fold change vs veh, RFX7 / RFU, GTPBP10 / Fold change vs veh, GTPBP10 / RFU, CNEP1R1 / Fold change vs veh, CNEP1R1 / RFU, BIVM-ERCC5 /// ERCC5 / Fold change vs veh, BIVM-ERCC5 /// ERCC5 / RFU, ILF3 / Fold change vs veh, ILF3 / RFU 11762660_at / Fold change /veh 11762660_at / RFU VCAN (11757783_s_at) / Fold change /veh VCAN (11757783_s_at) / RFU DDX43 (11728927_at) / Fold change /veh DDX43 (11728927_at) / RFU KRT8 (11758188_x_at) / Fold change /veh KRT8 (11758188_x_at) / RFU NKD1 (11759106_at) / Fold change /veh NKD1 (11759106_at) / RFU SRD5A1 (11742802_a_at) / Fold change /veh SRD5A1 (11742802_a_at) / RFU TPSAB1 /// TPSB2 (11721975_s_at) / Fold change /veh TPSAB1 /// TPSB2 (11721975_s_at) / RFU GSTM3 (11746129_a_at) / Fold change /veh GSTM3 (11746129_a_at) / RFU IL23R (11737362_x_at) / Fold change /veh IL23R (11737362_x_at) / RFU TMEM51 (11727254_a_at) / Fold change /veh TMEM51 (11727254_a_at) / RFU PIWIL2 (11732686_x_at) / Fold change /veh PIWIL2 (11732686_x_at) / RFU ORM1 (11744905_x_at) / Fold change /veh ORM1 (11744905_x_at) / RFU CCDC152 (11743942_at) / Fold change /veh CCDC152 (11743942_at) / RFU ECM1 (11717891_a_at) / Fold change /veh ECM1 (11717891_a_at) / RFU IL23R (11748794_a_at) / Fold change /veh IL23R (11748794_a_at) / RFU TNFAIP8L3 (11732012_x_at) / Fold change /veh TNFAIP8L3 (11732012_x_at) / RFU MBOAT4 (11741988_at) / Fold change /veh MBOAT4 (11741988_at) / RFU 11764193_at / Fold change /veh 11764193_at / RFU TMEM53 (11763286_at) / Fold change /veh TMEM53 (11763286_at) / RFU MAGEB2 (11727129_at) / Fold change /veh MAGEB2 (11727129_at) / RFU TMEM200A (11744735_a_at) / Fold change /veh TMEM200A (11744735_a_at) / RFU CCDC152 (11751479_a_at) / Fold change /veh CCDC152 (11751479_a_at) / RFU FAM211A (11726209_a_at) / Fold change /veh FAM211A (11726209_a_at) / RFU RGS16 (11746705_a_at) / Fold change /veh RGS16 (11746705_a_at) / RFU VCAN (11755009_s_at) / Fold change /veh VCAN (11755009_s_at) / RFU RHOB (11743442_s_at) / Fold change /veh RHOB (11743442_s_at) / RFU RGS16 (11720943_a_at) / Fold change /veh RGS16 (11720943_a_at) / RFU RGS16 (11720944_at) / Fold change /veh RGS16 (11720944_at) / RFU, VPS4B / Fold change vs veh, VPS4B / RFU, CREB1 / Fold change vs veh, CREB1 / RFU, DNAJC13 / Fold change vs veh, DNAJC13 / RFU, GNAQ / Fold change vs veh, GNAQ / RFU, CDK5R1 / Fold change vs veh, CDK5R1 / RFU, ZRANB3 / Fold change vs veh, ZRANB3 / RFU, CUL4A / Fold change vs veh, CUL4A / RFU, CCNY / Fold change vs veh, CCNY / RFU, UFL1 / Fold change vs veh, UFL1 / RFU, COG3 / Fold change vs veh, COG3 / RFU, DIAPH2 / Fold change vs veh, DIAPH2 / RFU, SKA2 / Fold change vs veh, SKA2 / RFU, AFF3 / Fold change vs veh, AFF3 / RFU, LMF1 / Fold change vs veh, LMF1 / RFU, IPO11 / Fold change vs veh, IPO11 / RFU, DFFB / Fold change vs veh, DFFB / RFU, FOXP1 / Fold change vs veh, FOXP1 / RFU, CARD8 / Fold change vs veh, CARD8 / RFU, STRN3 / Fold change vs veh, STRN3 / RFU, ADK / Fold change vs veh, ADK / RFU, RASSF2 / Fold change vs veh, RASSF2 / RFU, WIPF1 / Fold change vs veh, WIPF1 / RFU, LARP1B / Fold change vs veh, LARP1B / RFU, RASA1 / Fold change vs veh, RASA1 / RFU, RB1 / Fold change vs veh, RB1 / RFU, PPFIA1 / Fold change vs veh, PPFIA1 / RFU, MAT2A / Fold change vs veh, MAT2A / RFU, CCT5 / Fold change vs veh, CCT5 / RFU, WDR92 / Fold change vs veh, WDR92 / RFU, CUX1 / Fold change vs veh, CUX1 / RFU, TTC7A / Fold change vs veh, TTC7A / RFU, TMEM135 / Fold change vs veh, TMEM135 / RFU, DEPTOR / Fold change vs veh, DEPTOR / RFU, CPM / Fold change vs veh, CPM / RFU, DNAJB6 / Fold change vs veh, DNAJB6 / RFU, CACNA2D3 / Fold change vs veh, CACNA2D3 / RFU, DTX4 / Fold change vs veh, DTX4 / RFU, TFCP2 / Fold change vs veh, TFCP2 / RFU, GMCL1 /// GMCL1P1 / Fold change vs veh, GMCL1 /// GMCL1P1 / RFU, AEBP2 / Fold change vs veh, AEBP2 / RFU, SNHG1 /// SNORD22 /// SNORD25 /// SNORD26 /// SNORD27 /// SNORD28 /// SNORD29 /// SNORD31 / Fold change vs veh, SNHG1 /// SNORD22 /// SNORD25 /// SNORD26 /// SNORD27 /// SNORD28 /// SNORD29 /// SNORD31 / Fold change (Aza/veh), C12orf56 (ProbeSet 11735607_a_at) / Fold change (ACY-1035/veh), C12orf56 (ProbeSet 11735607_a_at) / Fold change (Aza/veh), FGFR1OP (ProbeSet 11751329_s_at) / Fold change (ACY-1035/veh), FGFR1OP (ProbeSet 11751329_s_at) / Fold change (Aza/veh), VPS36 (ProbeSet 11739960_a_at) / Fold change (ACY-1035/veh), VPS36 (ProbeSet 11739960_a_at) / RFU SYPL1 (11715823_x_at) / Fold change /veh SYPL1 (11715823_x_at) / RFU IGFBP7 (11715501_s_at) / Fold change /veh IGFBP7 (11715501_s_at) / RFU REEP3 (11722064_at) / Fold change /veh REEP3 (11722064_at) / RFU IGLL1 (11728026_x_at) / Fold change /veh IGLL1 (11728026_x_at): dose or concentration left out as unconfirmed
Settings: MV-4-11 cells, 48 hours

SMILES: Nc1ccc(-c2cccs2)cc1NC(=O)c1ccc2c(c1)cc(C1CC1)n2CCN1CCOCC1 [ACY-1035]
- Fold change /veh PLEKHG5 (11743358_a_at): 1.02
